Experimental data from paper PMC11435058, “Synthesis of New Thiazole-Privileged Chalcones as Tubulin Polymerization Inhibitors with Potential Anticancer Activities” (Pharmaceuticals, 2024).

Experiments:
Assay in all cases: NCI-60 anticancer screen (SRB; single dose and five doses)
EKVX = conditions: Homo sapiens
SW-620 = conditions: Homo sapiens
NCI-H322M = conditions: Homo sapiens
UACC-62 = conditions: Homo sapiens
PC-3 = conditions: Homo sapiens
NCI-H460 = conditions: Homo sapiens
BT-549 = conditions: Homo sapiens
RPMI-8226 = conditions: Homo sapiens
M14 = conditions: Homo sapiens
HOP-62 = conditions: Homo sapiens
CAKI-1 = conditions: Homo sapiens
SF-539 = conditions: Homo sapiens
SF-295 = conditions: Homo sapiens
ACHN = conditions: Homo sapiens
HOP-92 = conditions: Homo sapiens
SR = conditions: Homo sapiens
SNB-75 = conditions: Homo sapiens, SNB-75, 48 h, read-out: Growth Percentage
MDA-MB-231/ATCC = conditions: Homo sapiens
A498 = conditions: Homo sapiens
DU-145 = conditions: Homo sapiens
MDA-MB-468 = type: cell-based, human
Method: The methodology of the NCI anticancer screening has been described in detail elsewhere (http://www.dtp.nci.nih.gov). For detailed information, see Appendix A in the Supplementary Materials.
4.2.1. Screening of the anticancer activity against a panel of 60 cell Lines.
The methodology of the NCI anticancer screening has been described in detail elsewhere (http://www.dtp.nci.nih.gov.) Briefly, the primary anticancer assay was performed at approximately 60 human tumor cell lines panel derived from nine neoplastic diseases, in accordance with the protocol of the Drug Evaluation Branch, National Cancer Institute, Bethesda. Tested compounds were added to the culture at a single concentration (10μM) and the cultures were incubated for 48 h. End -point determinations were made with a protein binding dye, SRB. Results for each tested compound was reported as the percent of growth of the treated cells when compared to the untreated control cells. The percentage growth was evaluated spectrophotometrically versus controls not treated with test agents. […]

HS 578T = conditions: Homo sapiens
SN12C = conditions: Homo sapiens
SK-MEL-28 = conditions: Homo sapiens
SF-268 = conditions: Homo sapiens
[1] = 48 h, read-out: Growth Percentage

SMILES: Cc1[nH]c(=S)sc1C(=O)/C=C/c1ccc(F)cc1 [2c, (E)-3-(4-Fluorophenyl)-1-(4-Methyl-2-Thioxo-2,3-Dihydrothiazol-5-yl)Prop-2-En-1-One]
- GI50 (EKVX): 12.8 µM
- activity at 10 µM (EKVX; [1]): 51%
- CC50 (EKVX; read-out: LC50): 64.6 µM
- IC (TGI) (EKVX; read-out: TGI): 28.7 µM
- GI50 (SW-620; SW-620): 3.37 µM
- activity at 10 µM (SW-620; SW-620, 48 h, read-out: Growth Percentage): 13.8%
- CC50 (SW-620; SW-620, read-out: LC50): 49.3 µM
- IC (TGI) (SW-620; SW-620, read-out: TGI): 15 µM
- GI50 (NCI-H322M): 4.1 µM
- activity at 10 µM (NCI-H322M; [1]): 64%
- CC50 (NCI-H322M; read-out: LC50): 44.8 µM
- IC (TGI) (NCI-H322M; read-out: TGI): 17.9 µM
- GI50 (UACC-62; UACC-62): 5.3 µM
- activity at 10 µM (UACC-62; UACC-62, 48 h, read-out: Growth Percentage): 47.3%
- IC (TGI) (UACC-62; UACC-62, read-out: TGI): 19.3 µM
- GI50 (PC-3; PC-3): 5.82 µM
- activity at 10 µM (PC-3; PC-3, 48 h, read-out: Growth Percentage): 43.4%
- CC50 (PC-3; PC-3, read-out: LC50): > 100 µM
- IC (TGI) (PC-3; PC-3, read-out: TGI): 29.7 µM
- GI50 (NCI-H460; NCI-H460): 15.2 µM
- activity at 10 µM (NCI-H460; NCI-H460, 48 h, read-out: Growth Percentage): 39.3%
- CC50 (NCI-H460; NCI-H460, read-out: LC50): 83.3 µM
- IC (TGI) (NCI-H460; NCI-H460, read-out: TGI): 35.6 µM
- GI50 (BT-549; BT-549): 2.34 µM
- activity at 10 µM (BT-549; BT-549, 48 h, read-out: Growth Percentage): 23.2%
- IC (TGI) (BT-549; BT-549, read-out: TGI): 8.27 µM
- GI50 (RPMI-8226; RPMI-8226): 2.85 µM
- activity at 10 µM (RPMI-8226; RPMI-8226, 48 h, read-out: Growth Percentage): 2.32%
- CC50 (RPMI-8226; RPMI-8226, read-out: LC50): > 100 µM
- IC (TGI) (RPMI-8226; RPMI-8226, read-out: TGI): > 100 µM
- GI50 (M14; M14): 6.97 µM
- activity at 10 µM (M14; M14, 48 h, read-out: Growth Percentage): 49.6%
- IC (TGI) (M14; M14, read-out: TGI): 22.2 µM
- GI50 (HOP-62; HOP-62): 3.83 µM
- CC50 (HOP-62; HOP-62, read-out: LC50): 48.7 µM
- IC (TGI) (HOP-62; HOP-62, read-out: TGI): 16.2 µM
- GI50 (CAKI-1; CAKI-1): 6.89 µM
- activity at 10 µM (CAKI-1; CAKI-1, 48 h, read-out: Growth Percentage): 31.6%
- CC50 (CAKI-1; CAKI-1, read-out: LC50): 45.4 µM
- IC (TGI) (CAKI-1; CAKI-1, read-out: TGI): 20.2 µM
- GI50 (SF-539; SF-539): 2.94 µM
- activity at 10 µM (SF-539; SF-539, 48 h, read-out: Growth Percentage): -4.61%
- IC (TGI) (SF-539; SF-539, read-out: TGI): 10.8 µM
- GI50 (SF-295; SF-295): 12.5 µM
- activity at 10 µM (SF-295; SF-295, 48 h, read-out: Growth Percentage): 60.6%
- CC50 (SF-295; SF-295, read-out: LC50): 52.9 µM
- IC (TGI) (SF-295; SF-295, read-out: TGI): 25.7 µM
- GI50 (ACHN): 7.02 µM
- activity at 10 µM (ACHN; [1]): 47.2%
- CC50 (ACHN; read-out: LC50): 44.3 µM
- IC (TGI) (ACHN; read-out: TGI): 19.6 µM
- GI50 (HOP-92; HOP-92): 3.35 µM
- activity at 10 µM (HOP-92; HOP-92, 48 h, read-out: Growth Percentage): 45.4%
- CC50 (HOP-92; HOP-92, read-out: LC50): 56 µM
- IC (TGI) (HOP-92; HOP-92, read-out: TGI): 15.8 µM
- GI50 (SR): 3.19 µM
- activity at 10 µM (SR; [1]): 18.3%
- CC50 (SR; read-out: LC50): > 100 µM
- IC (TGI) (SR; read-out: TGI): > 100 µM
- activity at 10 µM (SNB-75): 36.5%
- GI50 (MDA-MB-231/ATCC; MDA-MB-231): 15.7 µM
- activity at 10 µM (MDA-MB-231/ATCC; MDA-MB-231, 48 h, read-out: Growth Percentage): 29.7%
- CC50 (MDA-MB-231/ATCC; MDA-MB-231, read-out: LC50): 66.1 µM
- IC (TGI) (MDA-MB-231/ATCC; MDA-MB-231, read-out: TGI): 32.2 µM
- GI50 (A498; A498): 13.6 µM
- activity at 10 µM (A498; A498, 48 h, read-out: Growth Percentage, A498, dose of 10 μM): 115%
- CC50 (A498; A498, read-out: LC50): 52.6 µM
- IC (TGI) (A498; A498, read-out: TGI): 26.8 µM
- GI50 (DU-145; DU-145): 4.32 µM
- activity at 10 µM (DU-145; DU-145, 48 h, read-out: Growth Percentage): 20.3%
- CC50 (DU-145; DU-145, read-out: LC50): 39.9 µM
- IC (TGI) (DU-145; DU-145, read-out: TGI): 15.7 µM
- activity at 10 µM (MDA-MB-468; Homo sapiens, 48 h, MDA-MB-468, dose of 10 μM, read-out: Growth Percentage): -4.51%
- GI50 (MDA-MB-468; Homo sapiens, MDA-MB-468, Breast Cancer, five dose): 1.93 µM
- CC50 (MDA-MB-468; Homo sapiens, MDA-MB-468, Breast Cancer, five dose, read-out: LC50 (the source's name)): 25.3 µM
- TGI (MDA-MB-468; MDA-MB-468, Breast Cancer, five dose): 6.46 µM
- GI50 (HS 578T): 13.2 µM
- activity at 10 µM (HS 578T; [1]): 95.3%
- CC50 (HS 578T; read-out: LC50): > 100 µM
- IC (TGI) (HS 578T; read-out: TGI): 40.2 µM
- GI50 (SN12C): 3.95 µM
- activity at 10 µM (SN12C; [1]): 24.1%
- CC50 (SN12C; read-out: LC50): 46.7 µM
- IC (TGI) (SN12C; read-out: TGI): 17 µM
- GI50 (SK-MEL-28; SK-MEL-28): 11.8 µM
- activity at 10 µM (SK-MEL-28; SK-MEL-28, 48 h, read-out: Growth Percentage): 50.6%
- CC50 (SK-MEL-28; SK-MEL-28, read-out: LC50): 51.4 µM
- IC (TGI) (SK-MEL-28; SK-MEL-28, read-out: TGI): 24.7 µM
- GI50 (SF-268; SF-268): 13 µM
- activity at 10 µM (SF-268; SF-268, 48 h, read-out: Growth Percentage): 58.6%
- CC50 (SF-268; SF-268, read-out: LC50): 63.1 µM
- IC (TGI) (SF-268; SF-268, read-out: TGI): 28.7 µM
